pKi: −log10 of the molar value.

The target of test [1] is Serine/threonine-protein kinase D2 (Homo sapiens) (UniProt Q9BZL6). To be noted: Compound concentration 1000.0 nM.
Test [2] concerns the target Dual specificity tyrosine-phosphorylation-regulated kinase 2 (Homo sapiens) (UniProt Q92630). The conditions noted are these: Compound concentration 1000.0 nM.
The target in test [3] is Serine/threonine-protein kinase Chk1 (Homo sapiens) (UniProt O14757). The conditions noted are these: Compound concentration 1000.0 nM.
In test [4] the target is NUAK family SNF1-like kinase 2 (Homo sapiens) (UniProt Q9H093). The conditions noted are these: Compound concentration 1000.0 nM.
The test system of test [5] is Phosphatidylinositol 4,5-bisphosphate 3-kinase catalytic subunit alpha isoform (Homo sapiens), P42336 [E542K]. To be noted: Compound concentration 1000.0 nM.
In test [6] the target is Tyrosine 3-monooxygenase (Homo sapiens) (UniProt P07101). The test is described as follows: TH CEREP ligand profiling. The conditions noted are these: Compound concentration 10.0 uM.
The target of test [7] is Prostaglandin F2-alpha receptor (Homo sapiens, UniProt P43088). The test is described as follows: Binding assay (PTGFR).
Prostaglandin F2-alpha receptor, sequence (P43088 whole entry): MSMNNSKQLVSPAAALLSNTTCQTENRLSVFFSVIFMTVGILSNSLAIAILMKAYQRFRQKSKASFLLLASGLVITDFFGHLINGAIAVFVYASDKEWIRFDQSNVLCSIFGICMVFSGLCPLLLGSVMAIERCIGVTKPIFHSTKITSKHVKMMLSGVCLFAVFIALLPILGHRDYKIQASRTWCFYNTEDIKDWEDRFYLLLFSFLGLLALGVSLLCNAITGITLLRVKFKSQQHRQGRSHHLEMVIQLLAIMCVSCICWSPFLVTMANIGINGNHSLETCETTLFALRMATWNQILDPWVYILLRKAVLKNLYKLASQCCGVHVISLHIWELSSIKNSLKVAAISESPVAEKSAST
In test [8] the target is Peripheral plasma membrane protein CASK (Homo sapiens) (UniProt O14936). To be noted: Compound concentration 1000.0 nM.
For the next test, the target named is Thromboxane A2 receptor (Homo sapiens, UniProt P21731). The test is described as follows: Binding assay (TBXA2R).
Test [9] has as its target MAP/microtubule affinity-regulating kinase 3 (Homo sapiens) (UniProt P27448). To be noted: Compound concentration 1000.0 nM.
Test [10] addresses Tyrosine-protein kinase Lyn (Homo sapiens) (UniProt P07948). As to the kind of experiment: Lyn kinase (h) CEREP ligand profiling. The conditions noted are these: Compound concentration 10.0 uM.
Test [11] has as its target Ephrin type-B receptor 4 (Homo sapiens) (UniProt P54760). To be noted: Compound concentration 1000.0 nM.
Test [12] addresses STE20-like serine/threonine-protein kinase (Homo sapiens) (UniProt Q9H2G2). To be noted: Compound concentration 1000.0 nM.
Test [13] relates to Receptor-type tyrosine-protein kinase FLT3 (Homo sapiens), P36888 [N841I]. To be noted: Compound concentration 1000.0 nM.
For test [14], the target named is Glycogen synthase kinase-3 alpha (Homo sapiens) (UniProt P49840). The conditions noted are these: Compound concentration 1000.0 nM.
Test [15] deals with Mu-type opioid receptor (Homo sapiens) (UniProt P35372). To be noted: Compound concentration 10.0 uM.
The target of test [16] is 5'-AMP-activated protein kinase catalytic subunit alpha-2 (Homo sapiens) (UniProt P54646). To be noted: Compound concentration 1000.0 nM.
Test [17] has as its target Ribosomal protein S6 kinase alpha-3 (Homo sapiens) (UniProt P51812). To be noted: Compound concentration 1000.0 nM.
The target in test [18] is Tyrosine-protein kinase ZAP-70 (Homo sapiens) (UniProt P43403). The test is described as follows: ZAP70 kinase (h) CEREP ligand profiling. The conditions noted are these: Compound concentration 10.0 uM.
Tyrosine-protein kinase ZAP-70 (Homo sapiens), sequence (P43403 whole entry): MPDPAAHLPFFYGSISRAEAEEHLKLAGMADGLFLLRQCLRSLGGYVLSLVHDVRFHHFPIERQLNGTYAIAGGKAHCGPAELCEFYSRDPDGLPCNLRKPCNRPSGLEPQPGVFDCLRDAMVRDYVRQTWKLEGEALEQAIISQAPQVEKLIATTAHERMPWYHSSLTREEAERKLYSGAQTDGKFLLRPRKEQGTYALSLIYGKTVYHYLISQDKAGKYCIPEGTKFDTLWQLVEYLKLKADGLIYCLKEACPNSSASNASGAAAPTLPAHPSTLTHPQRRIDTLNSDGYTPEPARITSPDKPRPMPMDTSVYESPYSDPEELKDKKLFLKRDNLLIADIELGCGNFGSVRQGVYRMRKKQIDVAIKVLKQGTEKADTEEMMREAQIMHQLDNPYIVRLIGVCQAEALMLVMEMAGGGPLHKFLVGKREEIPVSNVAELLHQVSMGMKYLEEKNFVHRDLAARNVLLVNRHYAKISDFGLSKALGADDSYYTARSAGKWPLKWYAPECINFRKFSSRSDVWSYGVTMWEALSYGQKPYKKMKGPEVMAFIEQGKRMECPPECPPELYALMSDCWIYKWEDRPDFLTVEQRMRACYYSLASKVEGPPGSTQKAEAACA
The target in test [19] is Voltage-dependent N-type calcium channel subunit alpha-1B (Homo sapiens) (UniProt Q00975). As to the kind of experiment: Ca2+ channel (N) CEREP ligand profiling. To be noted: Compound concentration 10.0 uM.
The target in test [20] is Serine/threonine-protein kinase PLK4 (Homo sapiens) (UniProt O00444). To be noted: Compound concentration 1000.0 nM.
Serine/threonine-protein kinase PLK4 (Homo sapiens), sequence (O00444 whole entry): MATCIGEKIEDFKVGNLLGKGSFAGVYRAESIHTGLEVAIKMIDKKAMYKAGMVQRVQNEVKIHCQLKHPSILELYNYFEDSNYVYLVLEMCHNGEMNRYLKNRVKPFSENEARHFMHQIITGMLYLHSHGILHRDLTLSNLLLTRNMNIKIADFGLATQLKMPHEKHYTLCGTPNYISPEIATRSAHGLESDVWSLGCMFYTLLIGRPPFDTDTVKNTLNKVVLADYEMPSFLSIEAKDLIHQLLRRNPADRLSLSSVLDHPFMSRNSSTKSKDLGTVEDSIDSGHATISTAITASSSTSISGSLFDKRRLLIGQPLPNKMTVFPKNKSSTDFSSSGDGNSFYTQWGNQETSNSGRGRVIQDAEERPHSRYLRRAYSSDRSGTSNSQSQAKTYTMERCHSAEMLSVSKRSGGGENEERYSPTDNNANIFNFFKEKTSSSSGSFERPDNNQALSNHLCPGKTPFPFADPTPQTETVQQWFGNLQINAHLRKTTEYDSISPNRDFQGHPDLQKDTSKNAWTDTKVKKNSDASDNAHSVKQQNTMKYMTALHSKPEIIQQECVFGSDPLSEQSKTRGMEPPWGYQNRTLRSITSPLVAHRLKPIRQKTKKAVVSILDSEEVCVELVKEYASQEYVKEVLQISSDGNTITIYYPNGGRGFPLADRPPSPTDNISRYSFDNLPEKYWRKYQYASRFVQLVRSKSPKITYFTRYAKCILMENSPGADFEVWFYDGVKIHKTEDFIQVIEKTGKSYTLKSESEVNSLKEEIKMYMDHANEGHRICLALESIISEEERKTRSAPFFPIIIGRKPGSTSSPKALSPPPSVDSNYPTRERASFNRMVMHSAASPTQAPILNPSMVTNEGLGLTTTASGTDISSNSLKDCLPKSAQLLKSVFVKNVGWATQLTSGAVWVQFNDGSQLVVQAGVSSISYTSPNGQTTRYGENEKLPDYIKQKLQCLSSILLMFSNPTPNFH
Test [21] deals with Acetylcholinesterase (Homo sapiens) (UniProt P22303). The test is described as follows: Acetylcholinesterase (h) CEREP ligand profiling. To be noted: Compound concentration 10.0 uM.
The target of test [22] is Gastrin/cholecystokinin type B receptor (Homo sapiens) (UniProt P32239). The test is described as follows: CCKB (h) (CCK2) CEREP ligand profiling. The conditions noted are these: Compound concentration 10.0 uM.
The target in test [23] is Mitogen-activated protein kinase 8 (Homo sapiens) (UniProt P45983). To be noted: Compound concentration 1000.0 nM.
Mitogen-activated protein kinase 8 (Homo sapiens), sequence (P45983 whole entry): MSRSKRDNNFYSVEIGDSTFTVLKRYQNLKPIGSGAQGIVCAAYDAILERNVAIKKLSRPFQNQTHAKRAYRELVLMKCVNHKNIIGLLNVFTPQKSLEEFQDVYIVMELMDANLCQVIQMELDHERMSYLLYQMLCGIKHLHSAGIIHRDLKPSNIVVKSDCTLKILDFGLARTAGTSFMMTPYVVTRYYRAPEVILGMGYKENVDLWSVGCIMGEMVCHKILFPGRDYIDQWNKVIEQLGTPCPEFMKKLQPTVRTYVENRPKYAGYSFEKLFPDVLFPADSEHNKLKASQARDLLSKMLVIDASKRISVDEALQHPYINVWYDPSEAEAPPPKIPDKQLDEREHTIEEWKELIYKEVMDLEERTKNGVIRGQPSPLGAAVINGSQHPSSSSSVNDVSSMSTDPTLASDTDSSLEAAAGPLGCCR
Test [24] deals with Peroxisome proliferator-activated receptor gamma (Homo sapiens) (UniProt P37231). As to the kind of experiment: PPAR gamma (h) CEREP ligand profiling. To be noted: Compound concentration 10.0 uM.
Test [25] addresses Serine/threonine-protein kinase SIK1 (Homo sapiens) (UniProt P57059). To be noted: Compound concentration 1000.0 nM.
In test [26] the target is STE20/SPS1-related proline-alanine-rich protein kinase (Homo sapiens) (UniProt Q9UEW8). To be noted: Compound concentration 1000.0 nM.
In test [27] the target is 5-hydroxytryptamine receptor 1A (Homo sapiens) (UniProt P08908). The test is described as follows: 5-HT1A (h) CEREP ligand profiling. The conditions noted are these: Compound concentration 10.0 uM.
Test [28] concerns the target Serine/threonine-protein kinase PAK 4 (Homo sapiens) (UniProt O96013). To be noted: Compound concentration 1000.0 nM.
Test [29] concerns the target cGMP-specific 3',5'-cyclic phosphodiesterase (Homo sapiens) (UniProt O76074). As to the kind of experiment: PDE5 (h) CEREP ligand profiling. The conditions noted are these: Compound concentration 10.0 uM.
The target of test [30] is Activin receptor type-1-like (Homo sapiens) (UniProt P37023). To be noted: Compound concentration 1000.0 nM.
Test [31] addresses Ribosomal protein S6 kinase alpha-6 (Homo sapiens) (UniProt Q9UK32). The conditions noted are these: Compound concentration 1000.0 nM.
The target in test [32] is Serine/threonine-protein kinase Nek11 (Homo sapiens) (UniProt Q8NG66). To be noted: Compound concentration 1000.0 nM.
In test [33] the target is Cyclin-dependent kinase-like 5 (Homo sapiens) (UniProt O76039). The conditions noted are these: Compound concentration 1000.0 nM.
Cyclin-dependent kinase-like 5 (Homo sapiens), sequence (O76039 whole entry): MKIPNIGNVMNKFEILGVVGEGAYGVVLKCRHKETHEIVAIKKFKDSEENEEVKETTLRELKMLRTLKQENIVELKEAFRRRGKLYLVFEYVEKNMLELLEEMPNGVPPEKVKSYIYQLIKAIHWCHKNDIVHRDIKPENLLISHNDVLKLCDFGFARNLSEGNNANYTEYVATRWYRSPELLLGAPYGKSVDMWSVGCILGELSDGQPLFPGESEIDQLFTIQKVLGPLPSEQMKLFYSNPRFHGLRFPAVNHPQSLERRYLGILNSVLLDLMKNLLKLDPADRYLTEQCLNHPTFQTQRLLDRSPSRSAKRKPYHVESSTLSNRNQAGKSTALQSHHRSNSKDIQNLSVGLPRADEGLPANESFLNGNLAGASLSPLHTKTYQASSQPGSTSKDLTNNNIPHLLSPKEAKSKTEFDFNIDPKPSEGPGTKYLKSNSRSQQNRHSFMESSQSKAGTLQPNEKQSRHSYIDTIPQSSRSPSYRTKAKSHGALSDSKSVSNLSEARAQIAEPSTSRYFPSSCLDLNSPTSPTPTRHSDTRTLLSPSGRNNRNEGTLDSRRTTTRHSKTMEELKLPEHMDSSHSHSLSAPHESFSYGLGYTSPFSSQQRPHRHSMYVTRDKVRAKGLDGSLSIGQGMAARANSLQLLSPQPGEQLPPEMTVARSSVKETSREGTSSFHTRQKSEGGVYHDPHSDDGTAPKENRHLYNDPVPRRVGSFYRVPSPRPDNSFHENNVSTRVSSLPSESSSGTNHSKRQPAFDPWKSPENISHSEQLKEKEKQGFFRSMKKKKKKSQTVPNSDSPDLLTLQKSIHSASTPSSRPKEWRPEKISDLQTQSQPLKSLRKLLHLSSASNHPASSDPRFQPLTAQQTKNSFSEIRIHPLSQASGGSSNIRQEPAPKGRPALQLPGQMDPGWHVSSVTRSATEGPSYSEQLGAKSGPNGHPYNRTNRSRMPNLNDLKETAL
Test [34] deals with Proto-oncogene tyrosine-protein kinase ROS (Homo sapiens) (UniProt P08922). The conditions noted are these: Compound concentration 1000.0 nM.
The target in test [35] is Cyclin-G-associated kinase (Homo sapiens) (UniProt O14976). To be noted: Compound concentration 1000.0 nM.
In test [36] the target is Serine/threonine-protein kinase RIO3 (Homo sapiens) (UniProt O14730). To be noted: Compound concentration 1000.0 nM.
In test [37] the target is Cyclin-dependent kinase 18 (Homo sapiens) (UniProt Q07002). To be noted: Compound concentration 1000.0 nM.
The target of test [38] is Sodium-dependent noradrenaline transporter (Homo sapiens) (UniProt P23975). As to the kind of experiment: NE transporter (h) CEREP ligand profiling. To be noted: Compound concentration 10.0 uM.
In test [39] the target is Sodium/potassium-transporting ATPase (Homo sapiens) (UniProt P05023+P14415+P05026+P50993+P54709+P13637+Q13733+P54710). The test is described as follows: ATPase (Na+/K+) CEREP ligand profiling. The conditions noted are these: Compound concentration 10.0 uM. The class given is protein-complex assay.
Test [40] concerns the target GABA-A receptor; anion channel (Homo sapiens) (UniProt P14867+P47870+P18507+P28472+P48169+Q99928+Q9UN88+P34903+O00591+O14764+Q8N1C3+P18505+P78334+P47869+P31644+Q16445). As to the kind of experiment: GABAA BZD (central) CEREP ligand profiling. The class given is protein-complex assay. To be noted: Compound concentration 10.0 uM.
Test [41] concerns the target Tyrosine-protein kinase ZAP-70 (Homo sapiens) (UniProt P43403). The conditions noted are these: Compound concentration 1000.0 nM.
The next test deals with D(1A) dopamine receptor (Homo sapiens, UniProt P21728). The test is described as follows: GPCRScan assay: inhibition of D1. More on the design: radioligand conc. used [nm] 0.6 – 1.3, parental cells HEKT.
For test [42], the target named is Sigma non-opioid intracellular receptor 1 (Homo sapiens) (UniProt Q99720). The conditions noted are these: Compound concentration 10.0 uM.

MAP/microtubule affinity-regulating kinase 3 (Homo sapiens), sequence (P27448 whole entry, looked up): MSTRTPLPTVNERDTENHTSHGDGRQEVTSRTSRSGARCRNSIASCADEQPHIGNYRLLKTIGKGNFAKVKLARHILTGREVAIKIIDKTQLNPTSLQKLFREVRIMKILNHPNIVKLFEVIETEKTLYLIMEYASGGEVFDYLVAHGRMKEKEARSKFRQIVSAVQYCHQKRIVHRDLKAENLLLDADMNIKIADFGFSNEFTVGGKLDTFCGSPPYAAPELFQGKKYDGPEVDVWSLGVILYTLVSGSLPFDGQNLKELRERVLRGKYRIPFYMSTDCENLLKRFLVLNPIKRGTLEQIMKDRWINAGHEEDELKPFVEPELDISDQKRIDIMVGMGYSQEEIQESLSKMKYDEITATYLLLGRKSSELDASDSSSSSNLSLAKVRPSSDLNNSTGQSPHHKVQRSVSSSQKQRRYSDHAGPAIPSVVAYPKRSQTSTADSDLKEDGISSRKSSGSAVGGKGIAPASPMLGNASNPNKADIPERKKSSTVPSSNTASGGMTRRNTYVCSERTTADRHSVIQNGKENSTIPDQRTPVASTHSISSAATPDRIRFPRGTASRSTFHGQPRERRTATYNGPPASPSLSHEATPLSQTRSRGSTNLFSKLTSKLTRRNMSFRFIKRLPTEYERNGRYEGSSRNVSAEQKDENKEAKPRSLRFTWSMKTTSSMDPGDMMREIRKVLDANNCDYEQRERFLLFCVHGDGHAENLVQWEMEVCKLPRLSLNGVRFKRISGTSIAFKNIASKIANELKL
Serine/threonine-protein kinase SIK1 (Homo sapiens), sequence (P57059 whole entry): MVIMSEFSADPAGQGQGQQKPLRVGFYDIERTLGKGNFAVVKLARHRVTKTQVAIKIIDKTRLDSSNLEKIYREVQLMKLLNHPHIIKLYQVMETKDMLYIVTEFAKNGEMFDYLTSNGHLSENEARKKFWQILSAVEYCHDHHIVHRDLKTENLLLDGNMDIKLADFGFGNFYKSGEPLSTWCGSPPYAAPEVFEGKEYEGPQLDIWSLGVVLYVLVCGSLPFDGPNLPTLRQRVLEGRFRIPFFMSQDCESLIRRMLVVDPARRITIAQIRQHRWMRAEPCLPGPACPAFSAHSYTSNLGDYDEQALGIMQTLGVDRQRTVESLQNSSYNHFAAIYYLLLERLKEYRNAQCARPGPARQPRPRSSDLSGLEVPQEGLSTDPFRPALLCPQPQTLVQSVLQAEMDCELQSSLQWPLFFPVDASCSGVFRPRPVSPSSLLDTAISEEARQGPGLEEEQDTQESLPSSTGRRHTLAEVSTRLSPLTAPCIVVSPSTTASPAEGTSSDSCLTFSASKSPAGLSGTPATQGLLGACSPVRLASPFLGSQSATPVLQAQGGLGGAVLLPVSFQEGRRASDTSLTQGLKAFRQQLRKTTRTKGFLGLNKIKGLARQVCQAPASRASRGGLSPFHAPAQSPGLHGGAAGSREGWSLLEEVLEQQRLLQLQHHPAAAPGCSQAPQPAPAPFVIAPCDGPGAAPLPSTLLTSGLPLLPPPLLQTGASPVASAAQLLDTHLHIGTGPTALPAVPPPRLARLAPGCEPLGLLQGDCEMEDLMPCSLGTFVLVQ

Take `COc1ccc2cc(OCC3(C(=O)O)CN(C(=O)c4ccc(F)cc4)C3)ccc2c1` [PF-04418948]: the residual activity in [1] is 93%; in test [2], 84%; in [3], 87%; in test [4] it was 92%; in test [5], 50%; in [8], 91%. Also, the residual activity in test [9] was 94%; in [11], 95%; in test [12], 85%; in test [13], 76%; in [14], 96%; in [16], 28%. Moreover, the residual activity in test [17] was 85%; in test [20], 82%; in test [23] it was 76%; in [25], 97%; in test [26], 55%; in test [28] it was 94%. For the same compound, the residual activity was 93% in [30]; 77% in test [31]; 93% in [32]; 97% in [33]; 81% in test [34]; 88% in test [35]. Further, the residual activity is 97% in [36], 98% in test [37] and 99% in test [41]. In addition, the inhibition is -10% in test [6]; 2% in [10]; 1.07% in test [15]; 9% in test [18]; -7% in test [19]; 45% in test [21]. Moreover, the inhibition in test [22] is -8%; in test [24], 14%; in [27] it was 6%; in test [29], 6%; in test [38] it was -2%; in test [39] it was 5%. Further, in test [40], the inhibition was 10%. Also, the Ki (in test [7]; at Thromboxane A2 receptor) was > 10 µM (not active) throughout.

With `O=C(c1ccc(F)cc1)N1CC(COc2ccc(Br)cc2)(C(=O)O)C1` [PF-04475866], the negative-log Ki (pKi) at D(1A) dopamine receptor is 5.00. Moreover, in test [42], the inhibition is 20.3%.

(Values after ChEMBL document CHEMBL4507298 (2021).)
